Measured values: patent publication EP0857779A1, “PROCESS FOR THE BIODEGRADATION OF AROMATIC COMPOUNDS AND SYNTHESIS OF PIGMENTS AND COLORANTS, ALCALOIDS AND POLYMERS, WITH THE USE OF THE R[…] ESCHERICHIA COLI P260” (priority 1996, dated 1998)

Assays:
[1] = biological target: T1, 4-HPA hydroxylase of K. pneumoniae (Klebsiella oxytoca, UniProt Q48440); assay: Hidroxylase activity expressed by E. coli P260 on different aromatic compounds; format: biochemical; set-up: concentration or dose not given beside the values; conditions: compound as organic substrate of the enzyme expressed by E. coli P260
T1 construct: expressed in transfected cells; host or cells: E. coli CC118 (K-12) transformed with pG260 = E. coli P260 (CECT 4627)
Text: (§1) By means of hydroxylation, this enzyme transforms 3-HPA and 4-HPA into 3,4-DHPA which, after the subdequent action of a dioxygenase, loses its aromaticity. For the isolation of these genes, the chromosomic DNA of K. pneumoniae was isolated and digested with the restriction enzyme Bam Hl. As a cloning vector the plasmid pUC18Not was chosen (Herrero et al., 1990; J. Bacteriol. 72:6557-67), digested with BamHl and dephosphorilated. Bonding mixtures were used in the transformation of the mutant strain W-21 of E. coli (Lacrec A), a mutant deficient in the 4-HPA hydroxylase enzyme. The transformants were select on plates that contained ampicillin (100 µg/ml), IPTG and X-Gal and subsequently on selected media with Ampicillin and 4-HPA as the sole source of carbon and energy. A recombinant plasmid complemented the 4-HPA mutation of E. coli W-21 and treating this transformant with acridin orange caused reversion to the mutant phenotype (due to loss of plasmids). […] Synthesis of the enzyme was checked by determining enzymatic activity in "standard" conditions, by means of a spectrophotometric test (Martin et al., 1991; J. Gen. Microbiol. 132: 621-628). In this way it was established that the enzyme synthesized constitutively in the strains of E. coli derived from K-12 (strains incapable of metabolizing 4-HPA because they lack all the genes of the degradative route), unlike what occurs in K. pneumoniae M5a1 or E. coli W, where synthesis of the enzyme is inducible by 3-HPA and/or 4-HPA. The E. coli K-12 (E. coli CC118) strains, transformed by the recombinant plasmid, were called E. coli P260. […]
The E. coli P260 cultures produced a blackish brown pigmentation in LB or BHI as a consequence of the expression of the cloned genes. […] To investigate this hypothesis, several aromatic compounds were analyzed, different from 3-HPA and 4-HPA, as possible substrates of the enzyme (Table 2).

4-HPA hidroxylase = assay: 4-HPA hydroxylase activity of strains, spectrophotometric test in standard conditions; format: biochemical, K. pneumoniae
Text: as §1

E. coli W-P260 strain = assay: Biodegradation (mineralization) of the aromatic compound by a growing culture, 14C-CO2 trapping and HPLC; format: cell-based; conditions: minimum PJC medium with glycerol and 4-HPA 2.5 mM, 30°C, 200 rpm
Protocol: In a test experiment, the following procedure was carried out: the E. coli W-P260 strain (obtained by transformation of the E. coli W-21 strain, mutant in hpa genes) was grown in a minimum PJC medium supplemented with glycerol and 4-HPA 2.5 mM (10% of which was marked with ^14C in the aromatic ring). Incubation was carried out at 30°C and with stirring (200 rpm). In order to quantify the biotransformation of the aromatic ring, the CO2 formed during the process was collected on NaOH 1N located in the lid of the matrass so that it would act as a trapping agent. Samples were taken at different times (Figure 3) so as to evaluate the formation of biomass (DO 680), release of CO2 (cpm) and the disappearance of 4 HPA (measurement of concentration by HPLC). In Figure 3 it may be observed how the mineralization capacity of the E. coli W-P260 strain achieves mineralization of the aromatic compound in 12 hours.

T1 sequence (Q48440 whole entry): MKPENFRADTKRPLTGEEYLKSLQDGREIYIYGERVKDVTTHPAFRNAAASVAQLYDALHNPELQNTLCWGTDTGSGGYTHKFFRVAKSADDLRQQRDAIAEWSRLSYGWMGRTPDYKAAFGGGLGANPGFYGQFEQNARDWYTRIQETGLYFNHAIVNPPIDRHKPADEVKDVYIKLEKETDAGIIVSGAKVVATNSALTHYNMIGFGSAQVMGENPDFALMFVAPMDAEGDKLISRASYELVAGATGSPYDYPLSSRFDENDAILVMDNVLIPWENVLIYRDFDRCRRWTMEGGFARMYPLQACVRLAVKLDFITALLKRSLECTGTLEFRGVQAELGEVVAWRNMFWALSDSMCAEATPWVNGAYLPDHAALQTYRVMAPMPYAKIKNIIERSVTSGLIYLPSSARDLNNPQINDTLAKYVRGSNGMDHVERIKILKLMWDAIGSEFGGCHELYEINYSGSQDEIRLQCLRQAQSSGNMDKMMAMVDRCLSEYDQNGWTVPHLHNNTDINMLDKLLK

O=C(O)c1ccc(O)cc1 [4-HBA, 4-Hydroxybenzoate]
% ACTIVITY [1]: 15%

Oc1ccccc1O [Catecol]
% ACTIVITY [1]: 30%

O=C(O)Cc1ccccc1 [PA, Phenylacetic acid]
% ACTIVITY [1]: < 5%

N[C@@H](Cc1ccc(O)c(O)c1)C(=O)O (racemic) [L-Dopa, DL-Dihydroxyphenylalanin]
% ACTIVITY [1]: 10%

O=C(O)Cc1ccccc1O [2-HPA, 2-Hydroxyphenylacetate]
% ACTIVITY [1]: < 5%

O=C(O)Cc1cccc(O)c1 [3-HPA]
4-HPA hidroxylase (4-HPA hidroxylase; strain E. coli CC118, substrate growth Gly/4-HPA): <1 | 4-HPA hidroxylase (4-HPA hidroxylase; strain E. coli P260, substrate growth Gly/4-HPA/Ap): 50±6 | 4-HPA hidroxylase (4-HPA hidroxylase; strain E. coli P260, substrate growth LB/Ap): 57±9 | 4-HPA hidroxylase (4-HPA hidroxylase; strain E. coli W-21 (plasmid), substrate growth Gly/4-HPA/Ap): 28±5 | 4-HPA hidroxylase (4-HPA hidroxylase; strain E. coli W-21 (plasmid), substrate growth LB/Ap): <5 | 4-HPA hidroxylase (4-HPA hidroxylase; strain E. coli W-21, substrate growth Gly/4-HPA): <1 | 4-HPA hidroxylase (4-HPA hidroxylase; strain K. pneumoniae M5a1, substrate growth 4-HPA): 26±9 | 4-HPA hidroxylase (4-HPA hidroxylase; strain K. pneumoniae M5a1, substrate growth LB): <1 | % ACTIVITY [1]: 100%

O=C(O)Cc1ccc(O)cc1 [4-HPA, 4-hydroxyphenylacetate]
% ACTIVITY [1]: 100% | mineralization of the aromatic compound (E. coli W-P260 strain): 12 h

O=C(O)c1ccc(O)c(O)c1 [3,4-DHBA, 3,4-Dihydroxybenzoate]
% ACTIVITY [1]: 30%

N[C@@H](Cc1ccc(O)cc1)C(=O)O [L-Tyr, L-Tyrosine]
% ACTIVITY [1]: 8%

O=C(O)Cc1ccc(O)c(O)c1 [3,4-DHPA, 3,4-dihydroxyphenylacetate]
% ACTIVITY [1]: 50%
